Converted amounts (≈) assume the structure as drawn.
Tests used:
[1] = physchem; settings: octan-1-ol/water
[2] = in vitro; settings: SD, HW or BN, rat, plasma
[3] = in vitro; settings: human, plasma
[4] = physchem; settings: pH 7.4 buffer

SMILES	logD ([1]; pH 7.4, LogD7.4)	fraction unbound at 5 h [2]	other results
COCCNCc1cccc(CCNC[C@H](O)c2ccc(O)c3[nH]c(=O)sc23)c1	0.01	0.197	
Cc1cc(Oc2ncc(C(F)(F)F)cc2Cl)ccc1CC1SC(=O)NC1=O (stereo unspecified)		0.0021	fraction unbound at 5 h ([3]; PPB): 0.0006
CC(NC(=O)c1cc2ccccc2[nH]1)c1ccccc1 (stereo unspecified)		0.0366	fraction unbound at 5 h ([3]; PPB): 0.0219
CC(C)NCC(O)COc1cccc2[nH]ccc12 (stereo unspecified) [PINDOLOL]		0.586	logD ([1]; pH 7.4): -0.12
CC(C)(C)NC(=O)CN1CCN(CC(=O)NC23CC4CC(CC(C4)C2)C3)CC1		0.309	fraction unbound at 5 h ([3]; PPB): 0.299
NC(=O)c1cncc(-c2ccc([C@H]3CC[C@H](CC(=O)O)CC3)cc2)n1		0.0063	fraction unbound at 5 h ([3]; PPB): 0.035
Cc1nc(C(F)F)c(C(N)=O)nc1-c1ccc([C@H]2CC[C@H](CC(=O)O)CC2)cc1		0.0383	fraction unbound at 5 h ([3]; PPB): 0.0544
CCN(CCO)C(=O)c1oc2cccnc2c1-c1cccc(C(F)(F)F)c1		0.139	fraction unbound at 5 h ([3]; PPB): 0.0872
Cc1nc(C)c(-c2ccc([C@H]3CC[C@H](CC(=O)NC(C)(C)C(=O)O)CC3)cc2)nc1C(N)=O		0.0251	fraction unbound at 5 h ([3]; PPB): 0.0784
O=C(NCc1ccc(OC(F)(F)F)cc1)C1c2ccccc2C(=O)N1CCc1ncc(F)cn1 (stereo unspecified)		0.0928	fraction unbound at 5 h ([3]; PPB): 0.0477
N#Cc1cc(S(=O)(=O)Nc2ncc(Cl)s2)ccc1Oc1ccc(Cl)cc1-c1ccnn1C1CNC1		0.0142	fraction unbound at 5 h ([3]; PPB): 0.0081
O=C(NCc1ccc(OCC(F)(F)F)nc1)C1c2ccccc2C(=O)N1CCc1ccccn1 (stereo unspecified)		0.371	fraction unbound at 5 h ([3]; PPB): 0.0928
COc1ncc(-c2ccccc2C(F)(F)CNC(=O)c2ccc(COCC(F)(F)F)nc2)cn1		0.129	fraction unbound at 5 h ([3]; PPB): 0.0099
CCOC(=O)Nc1ccc(NCc2ccc(F)cc2)cc1N [EZOGABINE]		0.201	fraction unbound at 5 h [3]: 0.139
CC[C@H](NC(=O)c1c(O)c(-c2ccccc2)nc2ccccc12)c1ccccc1 [TALNETANT]	3.91	0.0005	
COc1cc(-n2cnc3cc(-c4ccc(Cl)cc4)sc3c2=O)ccc1OCCN1CCCC1	2.74	0.0099	
Nc1nc2ccc(C(=O)c3ccccc3)cc2[nH]1	2.29	0.0736	
O=C(c1ccc(-c2ccc(Cl)cc2)o1)N(Cc1ccccn1)c1ccc(N2CCNCC2)cc1	3	0.0219	
CCC(C)(C)C(=O)O[C@H]1C[C@@H](C)C=C2C=C[C@H](C)[C@H](CC[C@@H](O)C[C@@H](O)CC(=O)O)[C@H]21 [TENIVASTATIN]	1.55	0.024	
O=S(=O)(Nc1nncs1)c1cc(Cl)c(Oc2ccc(C(F)(F)F)cc2-c2ccnnc2)cc1F [PF-05186462]	1.15	0.02	
CN(C(=O)Cc1ccc(S(C)(=O)=O)cc1)C1CCN(Cc2ccc(C(F)(F)F)cc2)CC1		0.16	solubility thermodynamic [4]: 363 µM (≈ 170 µg/mL)
NCCCCN(Cc1nc2ccccc2[nH]1)C1CCCc2cccnc21 (stereo unspecified)	0.83	0.371	

SMILES	logD ([1]; pH 7.4, LogD7.4)	fraction unbound at 5 h [2]	other results
CCc1nn(C2CCCC2)c2c1CCn1c(-c3cccs3)nnc1-2 [TOFIMILAST]		0.0477	solubility thermodynamic [4]: 22.4 µM (≈ 7.6 µg/mL)
CC(CN1c2ccccc2Sc2ccccc21)N(C)C (stereo unspecified) [PROMETHAZINE]	2.67	0.0705	
O=c1[nH]c2c(O)ccc([C@@H](O)CNCCCOCCOCCc3ccccc3)c2s1	1.09	0.465	
O=C(CC1CCCCCC1)Nc1cccc2c(=O)n([C@H]3CCNC3)ccc12	1.15	0.232	
O=C(Cc1ccc(F)c(C(F)(F)F)c1)Nc1cccc2c(=O)n([C@@H]3CNC[C@H]3O)ccc12	1.33	0.0948	
Cc1nc(C(F)(F)F)ccc1C(=O)Nc1ccc(Cl)c(-c2nc3ccccc3[nH]2)c1		0.0948	
C[S+]([O-])Cc1ccc(C(=O)Nc2nccnc2C(=O)NCC2CCC2)c2ccccc12 (stereo unspecified)		0.0988	
O=S(=O)(Nc1ncns1)c1cc(F)c(Oc2ccc(Cl)cc2-c2cn[nH]c2)cc1F		0.001	
O=C(O)CCc1ccc(NCc2cccc(Oc3ccccc3)c2)cc1 [GW9508]	2.1	0.0052	
CC1=C(CC(=O)NCc2ccc(C(=N)N)cc2)C(=O)N(NS(=O)(=O)c2c(C)cccc2Cl)CC1		0.54	
CC(C)C[C@H](CN)CC(=O)O [PREGABALIN]		0.5	
O=C(COc1cccc(Cl)c1)NC1CN(Cc2ccn(-c3ccc(C(F)(F)F)cc3)c2)C1		0.0043	
Nc1nc2c(c(N3CC[C@@H](N)C3)n1)CCCc1ccccc1-2		0.437	
O=C(O)c1cc(O)cc(O)c1 [3,5-DIHYDROXYBENZOIC ACID]		0.824	
CC(=O)N[C@@H](Cc1ccccc1)C(=O)N[C@H]1CCCNC(=O)[C@H](CCCNC(=N)N)NC(=O)[C@H](Cc2c[nH]c3ccccc23)NC(=O)[C@@H](CC2CCCCC2)NC(=O)[C@@H]2CCCN2C1=O		0.163	
C[C@@](O)(C(=O)Nc1ccc(S(C)(=O)=O)cc1Cl)C(F)(F)F	2.08	0.16	
OCCNC(=S)NCc1cccc(Cl)c1F		0.16	
Cc1ccc(NC(=O)c2cccc(N3CCOCC3)c2)cc1-n1cnc2ccc(N3CCN(C)CC3)cc2c1=O	2.69	0.103	solubility thermodynamic [4]: 427 µM (≈ 230 µg/mL)
CNC(=O)c1ccc(Oc2ccc3c(c2)CCN(C2CCC2)CC3)nc1 [GSK189254]	1.45	0.523	
CCCC(=O)Nc1ccc(Cl)c(-c2nc3ncccc3o2)c1		0.0358	
N#Cc1ccc2[nH]c(-c3ccc(F)cc3)c(CCCC(=O)NS(=O)(=O)C(F)(F)F)c2c1		0.0661	solubility thermodynamic [4]: 309 µM (≈ 140 µg/mL)
O=C(Nc1cccc(Cl)c1)Nc1nnc(-c2ccncc2)s1		0.0046	

SMILES	logD ([1]; pH 7.4, LogD7.4)	fraction unbound at 5 h [2]	other results
C[C@H](Nc1nc(Nc2cc(C3CC3)[nH]n2)c(F)cc1C#N)c1ccc(F)cc1		0.002	
COc1ccc(CN2CCc3c([nH]c4ccccc34)C2)cc1OC	3.1	0.0418	solubility thermodynamic [4]: 51.3 µM (≈ 16.5 µg/mL)
O=[N+]([O-])c1c(Nc2ccc(-n3cncn3)cc2)ncnc1N1CCC(Sc2ccccn2)CC1		0.0029	
CCNC(=O)Nc1sc2ccccc2c1C(=O)N1CCC(N2CCCC3(CCN(CC)C3=O)C2)CC1 (stereo unspecified)		0.17	
Cc1nccnc1-c1ccc(CC(=O)N[C@H](C)c2ccc(OCC(F)(F)F)cn2)cc1		0.17	
O=C(c1cc(Cc2n[nH]c(=O)c3ccccc23)ccc1F)N1CCCNCC1	0.1	0.597	
CC(C)(C)OC(=O)NC[C@H]1CC[C@H](CNC(=O)c2cc(N3CCC(CCN)CC3)nc3ccccc23)CC1		0.0321	
Cc1ccc(S(=O)(=O)N(C)c2ccc3sc(C)nc3c2)cc1		0.0067	
Fc1ccc(-c2cc(C(F)(F)F)nc(-n3cc(Cl)cn3)n2)cc1		0.0048	
CC(C)(C)OC(=O)N1CCC(OCc2nc(-c3ccncc3)no2)CC1	3	0.0752	solubility thermodynamic [4]: 269 µM (≈ 97 µg/mL)
Cc1c(-c2cc3ccccc3o2)oc(=O)c(C)c1O		0.0026	
CN1CCC[C@@H]1Cc1c[nH]c2ccc(Nc3ncccc3[N+](=O)[O-])cc12		0.387	
Cc1ncc(-c2cccc3c2C[C@H](NC(=O)c2ccc(OCC(F)(F)F)nc2)CO3)cn1		0.0768	
C=CCN(C)CCCCCCOc1ccc(C(=O)c2ccc(Br)cc2)c(F)c1		0.0006	
NCCCCN(Cc1nc2ccccc2[nH]1)[C@H]1CCCc2cccnc21 [MAVORIXAFOR]		0.244	
C[C@@H]1c2c([nH]c3ccc(C(F)(F)F)cc23)C[C@@H]2CCN(CCN3CCOCC3)C[C@H]21	2.87	0.0313	
C[C@@H](O[C@H]1OCCN(Cc2n[nH]c(=O)[nH]2)[C@H]1c1ccc(F)cc1)c1cc(C(F)(F)F)cc(C(F)(F)F)c1 [APREPITANT]		0.0023	
COC[C@H](C)Oc1cc(O[C@@H](C)Cc2ccccc2)cc(C(=O)Nc2ccc(C(=O)O)cn2)c1	1.5	0.0042	solubility thermodynamic [4]: 1480 µM (≈ 687 µg/mL)
CC(C)(C)OC(=O)NC[C@H]1CC[C@H](CNC(=O)c2cc(-c3ccncc3)nc3ccccc23)CC1		0.02	
O=C(NCc1ccc(OC(F)(F)F)cc1)C1c2ccccc2C(=O)N1CCc1ncccn1 (stereo unspecified)		0.129	
CN(C)CCC1CCN(c2cc(C(=O)NC[C@H]3CC[C@H](COC(=O)NC(C)(C)C)CC3)c3ccccc3n2)CC1		0.0328	
